{
  "source": "paper PMC5633740",
  "about": "“Identification of YfiH and the Catalase CatA As Polyphenol Oxidases of Aeromonas media and CatA as a Regulator of Pigmentation by Its Peroxyl Radical Scavenging Capacity” (Frontiers in Microbiology, 2017)",
  "target": "T1, CatA (PPO2; catalase; His6-tagged CatA) (Aeromonas media, UniProt A0AAE7AJ24)",
  "T1 construct": "gene E4188_09760; full ORF (1,449 bp) in pET-26b(+) NdeI/XhoI, His6-tagged, expressed in E. coli BL21(DE3), Ni-NTA; 55 kDa peak by gel filtration",
  "T1 sequence (A0AAE7AJ24 entry or part of it)": "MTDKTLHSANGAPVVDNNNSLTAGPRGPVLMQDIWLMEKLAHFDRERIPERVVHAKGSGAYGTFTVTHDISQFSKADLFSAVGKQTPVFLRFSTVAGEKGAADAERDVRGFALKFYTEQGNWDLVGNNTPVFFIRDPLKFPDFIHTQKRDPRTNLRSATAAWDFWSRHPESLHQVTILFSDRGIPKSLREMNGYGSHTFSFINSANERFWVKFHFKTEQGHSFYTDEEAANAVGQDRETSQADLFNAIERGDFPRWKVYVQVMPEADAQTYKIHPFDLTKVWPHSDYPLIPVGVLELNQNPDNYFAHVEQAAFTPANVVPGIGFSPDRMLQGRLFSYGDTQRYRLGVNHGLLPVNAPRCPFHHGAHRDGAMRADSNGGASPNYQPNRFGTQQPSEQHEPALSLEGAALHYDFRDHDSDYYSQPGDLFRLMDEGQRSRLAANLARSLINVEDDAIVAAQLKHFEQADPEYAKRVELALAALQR",
  "experiment": "native-PAGE activity staining of purified protein",
  "format": "biochemical",
  "conditions": "5 mM L-DOPA, 50 mM Tris-HCl pH 8.0, 30 °C, 30 min; qualitative",
  "data": [
    {"smiles": "N[C@@H](Cc1ccc(O)c(O)c1)C(=O)O", "note": "[L-DOPA, L-3,4-dihydroxyphenylalanine]", "values": [
      {"measurement": "native-PAGE activity staining of purified protein", "result": "All His6-tagged proteins exhibited both catalase and PPO activity"}
    ]}
  ]
}
